The values below come from publication PMC12148371 (iScience, 2025).

Where two headings read alike, the source gives them in different places.

Data set [1] relates to pseudotyped EBOV. In words: microbe, parasite or virus in culture. The format is cell-based, Zaire ebolavirus. The note with it: for IC50: read-out: EBOV (IC50).
Data set [2] concerns infectious EBOV. In words: microbe, parasite or virus in culture. The format is cell-based, Ebola Zaire virus. The note with it: Zaire ebolavirus, read-out: Infectious EBOV (IC50).
The subject of data set [3] is pseudotyped BDBV. The experiment in a line: microbe, parasite or virus in culture. The format is cell-based, Bundibugyo ebolavirus. Conditions: Bundibugyo virus, TZM-bl, read-out: BDBV (IC50).
Data set [4] can be described thus: in vitro. The note with it: human.
Data set [5] has as its system NPC1 binding to Ebola GP-RBD. Set-up: species or system Ebola virus.
Data set [6] relates to pseudotyped VSV. The format is cell-based, vesicular stomatitis virus.
The test system of data set [7] is pseudotyped A-MLV. It counts as cell-based, amphotropic murine leukemia virus.
The target of data set [8] is GP-RBD-Fc (without the glycan cap and MLD) (Bundibugyo ebolavirus (key resources table); called EBOV in the results). The experiment in a line: BLI; pH 7.4.
Data set [9] has the same target. In words: BLI; pH 6.1. Background: BLI is a label-free optical method that tracks binding on a fibre tip over time.

Consider `CNCc1ccc2c(c1)C[C@H](CNC(=N)N)[C@H]2NC(=O)C(=O)Nc1ccc(Cl)c(F)c1` [BNM-III-170], for which the “inhibition potency against EBOV, in words” value in data set [1] was “largely reduced”. Further, the IC50 in data set [1] (Zaire ebolavirus, TZM-bl) is above 30 µM.

As to `CC1(C)CC(NC(=O)C(=O)Nc2ccc(C(C)(C)C)cc2)CC(C)(C)N1` [Compd N9], the IC50 in data set [2] stood at 9.46 µM; in data set [1] (Zaire ebolavirus, TZM-bl), 9.51 ± 1.6 µM; in [3], 17.6 ± 2.7 µM. This molecule also yielded a CC50 in data set [4] above 100 µM.

In the case of `CC1(C)CC(NC(=O)C(=O)Nc2ccc(C(F)(F)F)c(F)c2)CC(C)(C)N1` [DY-III-226], the IC50 came to 11.1 µM in [1] (Zaire ebolavirus, TZM-bl); 11.2 ± 0.8 µM in data set [1]; 10.6 ± 0.5 µM in data set [3]. Moreover, in data set [4], the CC50 is 48.4 ± 5.4 µM.

As to `CC1(C)CC(NC(=O)C(=O)Nc2cc(F)c(Cl)c(F)c2)CC(C)(C)N1` [DY-III-227], the IC50 in data set [1] (Zaire ebolavirus, TZM-bl) amounted to 12.1 µM; in data set [1] it was 12.5 ± 1.5 µM; in data set [3] it was 12.1 ± 0.7 µM. Besides, the CC50 in [4] came out at 68.3 ± 4.3 µM.

Regarding `CC1(C)CC(NC(=O)C(=O)Nc2ccc(C(C)(C)C)c(F)c2)CC(C)(C)N1` [DY-III-228], the IC50 in data set [2] is 0.56 µM; in [1] (Zaire ebolavirus, TZM-bl), 1.98 ± 0.5 µM; in [3], 2.25 ± 0.2 µM. The “NPC1 binding remaining (A488+ cells) in presence of competitor” value (“NPC1 binding remaining (A488+ cells)” below) in [5] worked out at 30.90%. Also, the CC50 in [4] turned out to be 20.6 ± 2.6 µM.

As to `CC1(C)CC(NC(=O)C(=O)Nc2ccc(Cl)c(F)c2)CC(C)(C)N1` [JRC-II-191], the “neutralization of pseudotyped VSV” value in data set [6] is given as “did not neutralize”. Also, the IC50 worked out at 5.25 µM in data set [2]; 9.52 ± 1.4 µM in [1] (Zaire ebolavirus, TZM-bl); 9.99 ± 1.1 µM in data set [3]. The “NPC1 binding remaining (A488+ cells)” value in [5] amounted to 24.29%. The “neutralization of pseudotyped A-MLV” value in data set [7] is “did not neutralize”. In [4], the CC50 was 43.2 ± 6 µM.

As to `CC1(C)CC(NC(=O)C(=O)Nc2ccc(Cl)cc2)CC(C)(C)N1` [NBD-556], the IC50 was found to be 18.8 µM in [2]; 18.2 ± 1 µM in data set [1] (Zaire ebolavirus, TZM-bl); 16.8 ± 2.1 µM in data set [3]. Moreover, the “NPC1 binding remaining (A488+ cells)” value in data set [5] turned out to be 28.36%. Further, the CC50 in [4] came to 67.7 ± 7.3 µM.

For `CC1(C)CC(NC(=O)C(=O)Nc2ccc(Br)cc2)CC(C)(C)N1` [NBD-557], the IC50 in [1] (Zaire ebolavirus, TZM-bl) was determined as 19.8 ± 1.7 µM; in data set [3] it was 10.6 ± 1.8 µM.

As for “human soluble CD4-183 (sCD4-183) two-domain protein (domain or fragment)”, the Kd was 52 µM in [8] and 0.36 µM in data set [9].

As usually defined, the IC50 is the concentration at which inhibition is half-maximal. What is called Kd is a measure of binding affinity in units of concentration.
